Results on ten molecules are retold here after patent US20230234969A1, “N-LINKED MACROCYCLIC 7-(PYRAZOL-5-YL)-INDOLE DERIVATIVES AS INHIBIORS OF MCL-1” (Janssen Pharmaceutica NV, priority 2020, published 2023).

The subject of test [1] is MOLP-8 human multiple myeloma cell line. The test can be described thus: Caspase-Glo 3/7 assay in MOLP-8 cells (apoptosis induction). Type of test: cell-based. To be noted: MOLP8 cells, 2 hours incubation at 37° C.; averaged values over all runs on all batches. The source says: MCL-1 is a regulator of apoptosis and is highly over-expressed in tumor cells that escape cell death. The assay evaluates the cellular potency of small-molecule compounds targeting regulators of the apoptosis pathway, primarily MCL-1, Bfl-1, Bcl-2, and other proteins of the Bcl-2 family. Protein-protein inhibitors disrupting the interaction of anti-apoptotic regulators with BH3-domain proteins initiate apoptosis.
The Caspase-Glo® 3/7 Assay is a luminescent assay that measures caspase-3 and -7 activities in purified enzyme preparations or cultures of adherent or suspension cells. The assay provides a proluminescent caspase-3/7 substrate, which contains the tetrapeptide sequence DEVD. This substrate is cleaved to release aminoluciferin, a substrate of luciferase used in the production of light. Addition of the single Caspase-Glo® 3/7 Reagent in an “add-mix-measure” format results in cell lysis, followed by caspase cleavage of the substrate and generation of a “glow-type” luminescent signal.
This assay uses the MOLP-8 human multiple myeloma cell line, which is sensitive to MCL-1 inhibition.
Cell cultures were maintained between 0.2 and 2.0×10^6 cells/mL. The cells were harvested by collection in 50 mL conical tubes. The cells were then pelleted at 500 g for 5 mins before removing supernatant and resuspension in fresh pre-warmed culture medium. The cells were counted and diluted as needed.
The assay reagent was prepared by transferring the buffer solution to the substrate vial and mixing. The solution may be stored for up to 1 week at 4° C. with negligible loss of signal.
Compounds were delivered in assay-ready plates (Proxiplate) and stored at −20° C. Assays always include 1 reference compound plate containing reference compounds. The plates were spotted with 40 nL of compounds (0.5% DMSO final in cells; serial dilution; 30 μM highest conc. 1/3 dilution, 10 doses, duplicates). The compounds were used at room temperature and 4 μL of pre-warmed media was added to all wells except column 2 and 23. The negative control was prepared by adding 1% DMSO in media. The positive control was prepared by adding the appropriate positive control compound in final concentration of 60 μM in media. The plate was prepared by adding 4 μL negative control to column 23, 4 μL positive control to column 2 and 4 μL cell suspension to all wells in the plate. The plate with cells was then incubated at 37° C. for 2 hours. The assay signal reagent is the Caspase-Glo solution described above, and 8 μL was added to all wells. The plates were then sealed and measured after 30 minutes.
The activity of a test compound was calculated as percent change in apoptosis induction as follows:
[formula] % Effect (AC50)=100−((sample−LC)/(HC−LC))*100
% Control=(sample/HC)*100
% Control min=(sample−LC)/(HC−LC)*100

In test [2] the target is Myeloid Cell Leukemia 1 (Mcl-1) (Homo sapiens, UniProt Q07820). The test can be described thus: Terbium labeled Mcl-1 HTRF binding assay, displacement of Cy5-labeled BIM BH3 peptide. Particulars: 25 pM Tb-Mcl-1, 8 nM Cy5 Bim peptide, Ki=IC50/(1+[L]/Kd), [L]=8 nM, Kd=10 nM, 60 min room temperature, read-out: Tb-MCLl Ki. The method, then: Terbium labeled Myeloid Cell Leukemia 1 (Mcl-1) homogeneous time-resolved fluorescence (HTRF) binding assay utilizing the BIM BH3 peptide (H2N-(C/Cy5Mal) WIAQELRRIGDEFN-OH) as the binding partner for Mcl-1.
This assay evaluated inhibition of the BH3 domain: Mcl-1 interaction by measuring the displacement of Cy5-labeled BIM BH3 peptide (H2N—(C/Cy5Mal) WIAQELRRIGDEFN-OH) in the HTRF assay format.
The following assay and stock buffers were prepared for use in the assay: (a) Stock buffer: 10 mM Tris-HCl, pH=7.5+150 mM NaCl, filtered, sterilized, and stored at 4° C.; and (b) 1×assay buffer, where the following ingredients were added fresh to stock buffer: 2 mM dithiothreitol (DTT), 0.0025% Tween-20, 0.1 mg/mL bovine serum albumin (BSA). The 1×Tb-Mcl-1+Cy5 Bim peptide solution was prepared by diluting the protein stock solution using the 1×assay buffer (b) to 25 pM Tb-Mcl-1 and 8 nM Cy5 Bim peptide.
Using the Acoustic ECHO, 100 nL of 100×test compound(s) were dispensed into individual wells of a white 384-well Perkin Elmer Proxiplate, for a final compound concentration of 1× and final DMSO concentration of 1%. Inhibitor control and neutral control (NC, 100 nL of 100% DMSO) were stamped into columns 23 and 24 of assay plate, respectively. Into each well of the plate was then dispensed 10 μL of the 1×Tb-Mcl-1+Cy5 Bim peptide solution. The plate was centrifuged with a cover plate at 1000 rpm for 1 minute, then incubated for 60 minutes at room temperature with plates covered. The TR-FRET signal was read on an BMG PHERAStar FSX MicroPlate Reader at room temperature using the HTRF optic module (HTRF: excitation: 337 nm, light source: laser, emission A: 665 nm, emission B: 620 nm, integration start: 60 μs, integration time: 400 μs).
The BMG PHERAStar FSX MicroPlate Reader was used to measure fluorescence intensity at two emission wavelengths—665 nm and 620 nm—and report relative fluorescence units (RFU) for both emissions, as well as a ratio of the emissions (665 nm/620 nm)*10,000. The RFU values were normalized to percent inhibition as follows:
% inhibition=(((NC−IC)−(compound−IC))/(NC−IC))*100
where IC (inhibitor control, low signal)=mean signal of 1×Tb-MCl-1+Cy5 Bim peptide+inhibitor control or 100% inhibition of Mcl-1; NC (neutral control, high signal)=mean signal 1×Tb-MCl-1+Cy5 Bim peptide with DMSO only or 0% inhibition
An 11-point dose response curve was generated to determine IC50 values (using GenData) based on the following equation:
Y=Bottom+(Top−Bottom)/(1+10^((log IC50−X)*HillSlope))
where Y=% inhibition in the presence of X inhibitor concentration; Top=100% inhibition derived from the IC (mean signal of Mcl-1+inhibitor control); Bottom=0% inhibition derived from the NC (mean signal of Mcl-1+DMSO); Hillslope=Hill coefficient; and IC50=concentration of compound with 50% inhibition in relation to top/neutral control (NC).
In this assay [L]=8 nM and Kd=10 nM
Representative compounds of the present invention were tested according to the procedure as described above, with results as listed in the Table below (n.d. means not determined).
A general note: In TR-FRET formats the signal depends on donor and acceptor labels being close together.

Chain of Myeloid Cell Leukemia 1 (Mcl-1) (Q07820 whole entry, the tested form may be a part): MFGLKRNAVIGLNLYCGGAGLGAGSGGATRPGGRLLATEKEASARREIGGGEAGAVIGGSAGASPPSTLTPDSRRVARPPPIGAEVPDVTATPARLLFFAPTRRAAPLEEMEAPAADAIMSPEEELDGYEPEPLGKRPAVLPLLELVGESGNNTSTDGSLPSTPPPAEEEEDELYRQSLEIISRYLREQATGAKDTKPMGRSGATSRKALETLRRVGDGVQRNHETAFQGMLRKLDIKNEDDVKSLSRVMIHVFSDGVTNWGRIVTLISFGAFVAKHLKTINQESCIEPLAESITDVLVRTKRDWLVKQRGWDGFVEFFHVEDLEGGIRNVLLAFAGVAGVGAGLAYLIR

Regarding `Cc1nn2c(c1C)-c1c(Cl)ccc3c(c(C(=O)O)n(C)c13)CCCOc1cc(cc3ccccc13)SCc1cc(nn1C)CCC2` (single isomer, unassigned) [Compound 1], the AC50 (as a rule, the concentration giving half of the maximal activity seen) in test [1] was 67 nM. In test [2], the Ki (in general, a measure of affinity in units of concentration, obtained from inhibition or displacement) worked out at 0.09 nM.
In test [1], `Cc1nn2c(c1C)-c1c(Cl)ccc3c(c(C(=O)O)n(C)c13)CCCOc1cc(cc3ccccc13)SCc1cc(nn1C)CCC2` (single isomer, unassigned) [Compound 2] had an AC50 of 2710 nM. In addition, the Ki in test [2] turned out to be 3.21 nM.
In test [1], `CCn1c(C(=O)O)c2c3ccc(Cl)c(c31)-c1c(C)c(C)nn1CCCc1cc(n(C)n1)CCc1cc(c3ccc(F)cc3c1)OCCC2` (single isomer, unassigned) [Compound 3] came in with a half-maximal activity concentration (AC50) of 36 nM. The Ki in test [2] is 0.043 nM.
For `CCn1c(C(=O)O)c2c3ccc(Cl)c(c31)-c1c(C)c(C)nn1CCCc1cc(n(C)n1)CCc1cc(c3ccc(F)cc3c1)OCCC2` (single isomer, unassigned) [Compound 4] the same measures were 13100 nM and 33.7 nM.
The molecule `COCCOCCn1c(C(=O)O)c2c3ccc(Cl)c(c31)-c1c(C)c(C)nn1CCCc1cc(n(C)n1)CCc1cc(c3ccc(F)cc3c1)OCCC2` (single isomer, unassigned) [Compound 5] had an AC50 in test [1] of 27 nM. The inhibition constant (Ki) in test [2] is 0.027 nM.
For `COCCOCCn1c(C(=O)O)c2c3ccc(Cl)c(c31)-c1c(C)c(C)nn1CCCc1cc(n(C)n1)CCc1cc(c3ccc(F)cc3c1)OCCC2` (single isomer, unassigned) [Compound 6] the same measures were 1930 nM and 1.93 nM.
For `CCn1c(C(=O)O)c2c3ccc(Cl)c(c31)-c1c(C)c(C)nn1CCCc1cc(n(CCN(C)C)n1)CCc1cc(c3ccc(F)cc3c1)OCCC2` (single isomer, unassigned) [Compound 7] the same measures were 16 nM and 0.052 nM.
For the molecule `CCn1c(C(=O)O)c2c3ccc(Cl)c(c31)-c1c(C)c(C)nn1CCCc1cc(n(CCN(C)C)n1)CCc1cc(c3ccc(F)cc3c1)OCCC2` (single isomer, unassigned) [Compound 8], the AC50 in test [1] worked out at 1560 nM. Also, the Ki in test [2] came out at 8.06 nM.
Consider `CCn1c(C(=O)O)c2c3ccc(Cl)c(c31)-c1c(C)c(C)nn1CCCc1cc(n(CCOC)n1)CCc1cc(c3ccc(F)cc3c1)OCCC2` (single isomer, unassigned) [Compound 9], for which the activity in test [1] was half-maximal at 53 nM (AC50). Besides, the Ki in test [2] came to 0.061 nM.
Taken in the same sequence, the figures for `CCn1c(C(=O)O)c2c3ccc(Cl)c(c31)-c1c(C)c(C)nn1CCCc1cc(n(CCOC)n1)CCc1cc(c3ccc(F)cc3c1)OCCC2` (single isomer, unassigned) [Compound 10] were 3060 nM and 3.06 nM.
